Measurements from PubChem BioAssay (NCI).
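Results reflect a 48-hour exposure of cells in 96-well plates to compound at five concentrations. TGI denotes the concentration required for complete inhibition of growth.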

How the values were obtained:
Assay in all cases: growth of human tumour cells (NCI), 48 h
786-0 renal = test system: 786-0 renal
A498 renal = test system: A498 renal
A549 NSCLC = test system: A549 NSCLC
ACHN renal = test system: ACHN renal
BT-549 breast = test system: BT-549 breast
CAKI-1 renal = test system: CAKI-1 renal
CCRF-CEM leukemia = test system: CCRF-CEM leukemia
DU-145 prostate = test system: DU-145 prostate
EKVX NSCLC = test system: EKVX NSCLC
HCC-2998 colon = test system: HCC-2998 colon
HCT-116 colon = test system: HCT-116 colon
HCT-15 colon = test system: HCT-15 colon
HL-60(TB) leukemia = test system: HL-60(TB) leukemia
HOP-62 NSCLC = test system: HOP-62 NSCLC
HOP-92 NSCLC = test system: HOP-92 NSCLC
HS 578T breast = test system: HS 578T breast
HT29 colon = test system: HT29 colon
IGROV1 ovarian = test system: IGROV1 ovarian
K-562 leukemia = test system: K-562 leukemia
KM12 colon = test system: KM12 colon
LOX IMVI melanoma = test system: LOX IMVI melanoma
MALME-3M melanoma = test system: MALME-3M melanoma
MCF7 breast = test system: MCF7 breast
MDA-MB-231 breast = test system: MDA-MB-231 breast
MDA-MB-435 = test system: MDA-MB-435
MDA-N = test system: MDA-N
MOLT-4 leukemia = test system: MOLT-4 leukemia
NCI-H226 lung = test system: NCI-H226 lung
NCI-H23 lung = test system: NCI-H23 lung
NCI-H460 lung = test system: NCI-H460 lung
NCI-H522 lung = test system: NCI-H522 lung
NCI/ADR-RES ovarian = test system: NCI/ADR-RES ovarian
OVCAR-3 ovarian = test system: OVCAR-3 ovarian
OVCAR-4 ovarian = test system: OVCAR-4 ovarian
OVCAR-5 ovarian = test system: OVCAR-5 ovarian
OVCAR-8 ovarian = test system: OVCAR-8 ovarian
PC-3 prostate = test system: PC-3 prostate
RPMI-8226 leukemia = test system: RPMI-8226 leukemia
RXF 393 renal = test system: RXF 393 renal
SF-268 CNS = test system: SF-268 CNS
SF-295 CNS = test system: SF-295 CNS
SF-539 CNS = test system: SF-539 CNS
SK-MEL-2 melanoma = test system: SK-MEL-2 melanoma
SK-MEL-28 melanoma = test system: SK-MEL-28 melanoma
SK-MEL-5 melanoma = test system: SK-MEL-5 melanoma
SK-OV-3 ovarian = test system: SK-OV-3 ovarian
SN12C renal = test system: SN12C renal
SNB-19 CNS = test system: SNB-19 CNS
SNB-75 CNS = test system: SNB-75 CNS
SR leukemia = test system: SR leukemia
SW-620 colon = test system: SW-620 colon
T-47D breast = test system: T-47D breast
TK-10 renal = test system: TK-10 renal
U251 CNS = test system: U251 CNS
UACC-257 melanoma = test system: UACC-257 melanoma
UACC-62 melanoma = test system: UACC-62 melanoma
UO-31 renal = test system: UO-31 renal
COLO 205 colon = test system: COLO 205 colon
M14 melanoma = test system: M14 melanoma

CN(C)/C=N/S(=O)(=O)c1nn2c(C=O)c(-c3cc4ccccc4oc3=O)nc2s1
TGI (786-0 renal): 5.24 µM | TGI (A498 renal): 55.3 µM | TGI (A549 NSCLC): > 63.5 µM | TGI (ACHN renal): 5.9 µM | TGI (BT-549 breast): 33.1 µM | TGI (CAKI-1 renal): 4.95 µM | TGI (CCRF-CEM leukemia): 7.33 µM | TGI (DU-145 prostate): > 36.6 µM | TGI (EKVX NSCLC): 43 µM | TGI (HCC-2998 colon): 48.5 µM | TGI (HCT-116 colon): 5.89 µM | TGI (HCT-15 colon): 27.6 µM | TGI (HL-60(TB) leukemia): 4.05 µM | TGI (HOP-62 NSCLC): > 59.2 µM | TGI (HOP-92 NSCLC): 19.2 µM | TGI (HS 578T breast): > 27 µM | TGI (HT29 colon): 2.97 µM | TGI (IGROV1 ovarian): 25.1 µM | TGI (K-562 leukemia): > 24.4 µM | TGI (KM12 colon): > 49 µM | TGI (LOX IMVI melanoma): 15.4 µM | TGI (MALME-3M melanoma): 6.07 µM | TGI (MCF7 breast): > 36.6 µM | TGI (MDA-MB-231 breast): 32.3 µM | TGI (MDA-MB-435): 62.4 µM | TGI (MDA-N): 20.7 µM | TGI (MOLT-4 leukemia): > 20.6 µM | TGI (NCI-H226 lung): > 56.5 µM | TGI (NCI-H23 lung): 42.4 µM | TGI (NCI-H460 lung): > 88.1 µM | TGI (NCI-H522 lung): 3.09 µM | TGI (NCI/ADR-RES ovarian): > 100 µM | TGI (OVCAR-3 ovarian): 17.3 µM | TGI (OVCAR-4 ovarian): 28.3 µM | TGI (OVCAR-5 ovarian): > 84.3 µM | TGI (OVCAR-8 ovarian): > 42 µM | TGI (PC-3 prostate): > 48.5 µM | TGI (RPMI-8226 leukemia): 30.4 µM | TGI (RXF 393 renal): 9.97 µM | TGI (SF-268 CNS): > 44.9 µM | TGI (SF-295 CNS): > 100 µM | TGI (SF-539 CNS): 61 µM | TGI (SK-MEL-2 melanoma): 40.1 µM | TGI (SK-MEL-28 melanoma): 12.1 µM | TGI (SK-MEL-5 melanoma): 12 µM | TGI (SK-OV-3 ovarian): > 100 µM | TGI (SN12C renal): 24.5 µM | TGI (SNB-19 CNS): > 100 µM | TGI (SNB-75 CNS): > 82.1 µM | TGI (SR leukemia): 36.5 µM | TGI (SW-620 colon): > 29.4 µM | TGI (T-47D breast): 18.6 µM | TGI (TK-10 renal): 14.8 µM | TGI (U251 CNS): > 42.6 µM | TGI (UACC-257 melanoma): 29.3 µM | TGI (UACC-62 melanoma): 27.5 µM | TGI (UO-31 renal): 4.84 µM

Cc1ccnc2sc3ccccc3c(=O)c12
TGI (786-0 renal): > 100 µM | TGI (A498 renal): > 100 µM | TGI (ACHN renal): > 100 µM | TGI (BT-549 breast): > 100 µM | TGI (CAKI-1 renal): 61.5 µM | TGI (CCRF-CEM leukemia): > 100 µM | TGI (COLO 205 colon): > 100 µM | TGI (DU-145 prostate): > 100 µM | TGI (EKVX NSCLC): 94.4 µM | TGI (HCC-2998 colon): > 100 µM | TGI (HCT-116 colon): > 100 µM | TGI (HCT-15 colon): > 100 µM | TGI (HL-60(TB) leukemia): > 100 µM | TGI (HOP-62 NSCLC): > 100 µM | TGI (HOP-92 NSCLC): > 100 µM | TGI (HS 578T breast): 77.6 µM | TGI (HT29 colon): 93.3 µM | TGI (IGROV1 ovarian): > 100 µM | TGI (K-562 leukemia): > 100 µM | TGI (KM12 colon): > 100 µM | TGI (LOX IMVI melanoma): > 100 µM | TGI (M14 melanoma): > 100 µM | TGI (MALME-3M melanoma): > 100 µM | TGI (MCF7 breast): > 100 µM | TGI (MDA-MB-231 breast): > 100 µM | TGI (MDA-MB-435): > 100 µM | TGI (MDA-N): > 100 µM | TGI (MOLT-4 leukemia): 79.2 µM | TGI (NCI-H226 lung): > 100 µM | TGI (NCI-H23 lung): > 100 µM | TGI (NCI-H460 lung): > 100 µM | TGI (NCI-H522 lung): 99.2 µM | TGI (NCI/ADR-RES ovarian): > 100 µM | TGI (OVCAR-3 ovarian): > 100 µM | TGI (OVCAR-4 ovarian): > 100 µM | TGI (OVCAR-5 ovarian): > 100 µM | TGI (OVCAR-8 ovarian): > 100 µM | TGI (PC-3 prostate): > 100 µM | TGI (RPMI-8226 leukemia): > 100 µM | TGI (RXF 393 renal): > 100 µM | TGI (SF-268 CNS): > 100 µM | TGI (SF-295 CNS): > 100 µM | TGI (SF-539 CNS): > 100 µM | TGI (SK-MEL-2 melanoma): > 100 µM | TGI (SK-MEL-28 melanoma): > 100 µM | TGI (SK-MEL-5 melanoma): 73.4 µM | TGI (SK-OV-3 ovarian): > 100 µM | TGI (SN12C renal): > 100 µM | TGI (SNB-19 CNS): > 100 µM | TGI (SNB-75 CNS): 63.2 µM | TGI (SR leukemia): > 100 µM | TGI (SW-620 colon): > 100 µM | TGI (T-47D breast): > 100 µM | TGI (TK-10 renal): 90.6 µM | TGI (U251 CNS): > 100 µM | TGI (UACC-257 melanoma): > 100 µM | TGI (UACC-62 melanoma): 63 µM | TGI (UO-31 renal): 81.8 µM
